# From patent US12577231B2, “Androgen receptor PROTACS” (GlaxoSmithKline Intellectual Property Development Limited, priority 2023, dated 2026)
# Biological target: T1, wild type androgen receptor (Homo sapiens, UniProt P10275)
# T1 construct: expressed in transfected cells; host or cells: A549, transduced, puromycin selected
# T1 sequence (P10275 1-920): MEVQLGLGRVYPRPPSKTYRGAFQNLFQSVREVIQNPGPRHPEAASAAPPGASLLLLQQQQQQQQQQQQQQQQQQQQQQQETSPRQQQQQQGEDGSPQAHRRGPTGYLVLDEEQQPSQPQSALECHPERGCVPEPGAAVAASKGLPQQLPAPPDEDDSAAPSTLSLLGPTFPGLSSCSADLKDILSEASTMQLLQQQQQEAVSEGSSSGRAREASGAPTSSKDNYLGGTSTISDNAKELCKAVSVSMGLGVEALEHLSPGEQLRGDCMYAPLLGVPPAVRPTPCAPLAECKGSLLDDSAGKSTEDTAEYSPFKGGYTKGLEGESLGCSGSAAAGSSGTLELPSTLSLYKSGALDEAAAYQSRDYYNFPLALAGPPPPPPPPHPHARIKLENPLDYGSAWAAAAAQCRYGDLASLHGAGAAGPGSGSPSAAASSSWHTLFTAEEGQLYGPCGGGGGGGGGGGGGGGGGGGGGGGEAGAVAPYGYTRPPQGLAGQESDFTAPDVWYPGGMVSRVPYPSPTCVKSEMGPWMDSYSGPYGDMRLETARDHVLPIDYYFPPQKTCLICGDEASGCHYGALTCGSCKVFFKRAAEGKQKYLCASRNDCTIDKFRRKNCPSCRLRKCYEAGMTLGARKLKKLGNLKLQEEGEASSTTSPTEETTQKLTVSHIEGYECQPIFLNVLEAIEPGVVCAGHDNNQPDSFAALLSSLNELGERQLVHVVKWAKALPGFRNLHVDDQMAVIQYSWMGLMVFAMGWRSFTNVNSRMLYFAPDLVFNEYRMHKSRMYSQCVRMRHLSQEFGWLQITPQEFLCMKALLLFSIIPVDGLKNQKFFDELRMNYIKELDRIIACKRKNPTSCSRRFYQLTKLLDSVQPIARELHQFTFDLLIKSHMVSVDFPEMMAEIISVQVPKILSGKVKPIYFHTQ
# Test: Degradation of overexpressed Androgen Receptor in A549 cells (HiBiT), wild type
# Assay type: cell-based
# Conditions: A549 cells overexpressing AR WT, cycloheximide, 24 hours
# Protocol: A549 cells were transduced to express wild type androgen receptor and Androgen receptor containing the following mutations (L702H, H875Y W742C W742L F877L, T878A and T878A/H875Y) with HiBiT tags. Transduced cells following puromycin selection were maintained in a humidified incubator (at 37° C. and 5% CO2 in the DMEM medium supplemented with 1% (v/v) Pen/Strep, 1% (v/v) Glutamax and 10% (v/v) FBS. A549 cells expressing each AR construct were detached from plate and counted. Cell suspensions at density 0.2 million per mL were prepared. Cell suspension was supplemented with 100 μg/mL of cycloheximide to block protein synthesis. Cells were preincubated with cycloheximide for 1 hr before seeding. Cells were seeded onto 384-well plate at density of 5,000 in 25 μL per well. A two fold serial dilution of test compounds, starting from 1 μM (row A) in 2-fold serial dilution series across the column using Tecan D300e dispenser. […]
# Nano-Glo HiBiT Lytic reagent was prepared by adding LgBiT protein and Nano-Glo® substrate to lytic buffer pre-equilibrated at room temperature following manufacturer protocol (https://www.promega.co.uk/resources/protocols/technical-manuals/101/nanoglo-luciferase-assay-system-protocol). […] The plates were then centrifuged (100×G, 1 min) and incubated on shaker for 10 mins before taking readings on Pherastar Luminescence microplate reader. […]
smiles,measurement,value
"COc1cc(O[C@H]2C(C)(C)[C@H](NC(=O)c3ccc(N4CCC(CN5CCC(n6ncc7c(N8CCC(=O)NC8=O)nccc76)CC5)CC4)c(F)c3)C2(C)C)ccc1C#N [Example 20, N-((1r,3r)-3-(4-Cyano-3-methoxyphenoxy)-2,2,4,4-tetramethylcyclobutyl)-4-(4-((4-(4-(2,4-dioxotetrahydropyrimidin-1(2H)-yl)-1H-pyrazolo[4,3-c]pyridin-1-yl)piperidin-1-yl)methyl)piperidin-1-yl)-3-fluorobenzamide]",Summary pXC50,8.95
